Data on 14 compounds can be found in patent US9115073B2, “1,3-diphenylpropane derivatives, preparations and uses thereof” (GENFIT, priority 2011, dated 2015).

The structures appear in SMILES notation.

What all share (type): cell-based
One assay deals with T1, hPPARdelta (Homo sapiens, UniProt Q03181).
T1 construct: Gal4-hPPARδ(LBD); Gal4 (fusion partner); expressed in transfected cells; host or cells: COS-7 (monkey kidney)
T1 sequence (Q03181 211-439 limits assumed): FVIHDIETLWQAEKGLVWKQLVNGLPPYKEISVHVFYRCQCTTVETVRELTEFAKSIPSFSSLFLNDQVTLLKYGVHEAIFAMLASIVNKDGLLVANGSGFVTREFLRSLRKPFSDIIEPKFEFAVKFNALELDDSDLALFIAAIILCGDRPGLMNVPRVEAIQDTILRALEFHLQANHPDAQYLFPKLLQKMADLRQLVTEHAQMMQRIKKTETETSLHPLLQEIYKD
The assay can be described thus: Gal4-hPPARdelta transactivation assay in COS-7 cells (luciferase). Particulars: for Gal4-hPPARδ(LBD) TOP (% ref): maximal relative activation vs reference; for Emax: COS-7, maximal relative activation vs reference, read-out: Gal4-hPPARδ(LBD) TOP (% ref); for EC50: Gal4-hPPARδ(LBD) transactivation. Here is the method:
(§1) Monkey kidney COS-7 cells were maintained in standard culture conditions (Dulbecco's modified Eagle's minimal medium: DMEM) supplemented with 10% fetal calf serum, 1% sodium pyruvate, 1% essential amino acids and 1% antibiotics at 37° C. in a humidified atmosphere of 5% C02 and 95% air. The medium was changed every 2 days. All tested compounds were dissolved in DMSO. Cells were transfected using 2 μl JetPEI™ (Polyplus transfection)/μg of DNA. Briefly, 40 μg of DNA was transfected in a 225 cm^2 culture flask of adherent COS-7 cells (respecting the 1/50 ratio between the Gal4(RE)_TkpGL3 plasmid and the plasmid coding the nuclear receptor of interest (pGal4-hPPARalpha, pGal4-hPPARgamma, pGal4-hPPARdelta, pGal4-mPPARalpha, pGal4-mPPARgamma and pGal4-mPPARdelta) or of the pGal4phi plasmid (negative control). Cells were enzymatically detached and seeded in 384 well plates at the density of 20,000 cells/well and then incubated for 4 hours at 37° C. The activation was automatically performed, by using the Genesis Freedom 200™ (Tecan), in fresh medium supplemented with 2% of synthetic serum, free of lipids (Ultroser™, Biosepra) supplemented with the tested compounds (compound of interest or reference molecules) or vehicle (DMSO 0.1%). The luciferase activity was measured with the Steady-Glo Luciferase Assay System (Promega, Madison, Wis.). All transactivation experiments were performed at least 2 times. Activation curves were realized using SigmaPlot® (version 7.0 from SPSS Inc.) software and took into account all the experimental points. SimgaPlot® was also used to fit the standard curves and then determine the specific EC50 values, maximum effect versus reference molecules and Hill slope. The Emax effect of each new ligand is represented as the ratio of the maximal induction (plateau) obtained with the new ligand and the induction obtained with the corresponding reference compound. The reference compounds for PPARalpha, PPARgamma and PPARdelta were fenofibrate (100 μM), rosiglitazone (10 μM) and GW501516 (1 μM).

For another assay, the target named is T2, hPPARgamma (Homo sapiens, UniProt P37231).
T2 construct: Gal4-hPPARγ(LBD); Gal4 (fusion partner); expressed in transfected cells; host or cells: COS-7 (monkey kidney)
T2 sequence (P37231 238-503 limits assumed): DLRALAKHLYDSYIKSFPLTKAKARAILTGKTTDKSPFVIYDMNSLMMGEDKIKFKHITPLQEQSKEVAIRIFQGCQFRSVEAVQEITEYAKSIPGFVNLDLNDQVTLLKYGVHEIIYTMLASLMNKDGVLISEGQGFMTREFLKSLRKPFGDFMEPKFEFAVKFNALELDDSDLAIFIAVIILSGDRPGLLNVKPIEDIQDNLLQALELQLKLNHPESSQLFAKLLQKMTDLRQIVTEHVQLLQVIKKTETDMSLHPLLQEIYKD
Nature of the assay: Gal4-hPPARgamma transactivation assay in COS-7 cells (luciferase). Particulars: for Gal4-hPPARγ(LBD) TOP (% ref): maximal relative activation vs reference; for Emax: COS-7, maximal relative activation vs reference, read-out: Gal4-hPPARγ(LBD) TOP (% ref); for EC50: Gal4-hPPARγ(LBD) transactivation. Here is the method:
as §1

Another assay deals with T3, hPPARalpha (Homo sapiens, UniProt Q07869).
T3 construct: Gal4-hPPARα(LBD); Gal4 (fusion partner); expressed in transfected cells; host or cells: COS-7 (monkey kidney)
T3 sequence (Q07869 239-466 limits assumed): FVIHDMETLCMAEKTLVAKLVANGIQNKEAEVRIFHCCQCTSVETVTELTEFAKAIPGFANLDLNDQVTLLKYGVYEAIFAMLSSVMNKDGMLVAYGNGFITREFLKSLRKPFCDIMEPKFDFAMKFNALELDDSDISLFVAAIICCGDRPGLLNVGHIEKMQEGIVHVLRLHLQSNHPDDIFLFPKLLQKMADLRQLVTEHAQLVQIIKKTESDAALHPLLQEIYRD
The assay can be described thus: Gal4-hPPARalpha transactivation assay in COS-7 cells (luciferase). As to conditions: for Gal4-hPPARα(LBD) TOP (% ref): maximal relative activation vs reference; for Emax: COS-7, maximal relative activation vs reference, read-out: Gal4-hPPARα(LBD) TOP (% ref); for EC50: Gal4-hPPARα(LBD) transactivation. As for the experimental part:
as §1

As to `COC(c1ccccc1OC(F)(F)F)C1CC1c1cc(C)c(OC(C)(C)C(=O)O)c(C)c1` (racemic) [Cpd 13-2, 2-(4-(2-(methoxy(2-(trifluoromethyloxy)phenyl)methyl)cyclopropyl)-2,6-dimethylphenoxy)-2-methylpropanoic acid], the “Gal4-hPPARδ(LBD) TOP (% ref)” value at hPPARdelta is 57 % ref. For the same compound, the “Gal4-hPPARγ(LBD) TOP (% ref)” value on hPPARgamma is recorded as 71 % ref. Also, the “Gal4-hPPARα(LBD) TOP (% ref)” value on hPPARalpha is reported as 28 % ref.

In the case of `COC(c1ccc(OC(F)(F)F)cc1)C1CC1c1cc(C)c(OC(C)(C)C(=O)O)c(C)c1` (racemic) [Cpd 14-2, 2-(4-(2-(methoxy(4-(trifluoromethoxy)phenyl)methyl)cyclopropyl)-2,6-dimethylphenoxy)-2-methylpropanoic acid], the “Gal4-hPPARδ(LBD) TOP (% ref)” value on hPPARdelta (listed as cpd 14-2) was 74 % ref. For the same compound, the “Gal4-hPPARγ(LBD) TOP (% ref)” value on hPPARgamma (listed as cpd 14-2) was determined as 58 % ref. Further, the “Gal4-hPPARα(LBD) TOP (% ref)” value at hPPARalpha (listed as cpd 14-2) worked out at 58 % ref.

For `COC(c1ccc(OC(F)(F)F)cc1)C1CC1c1ccc(OC(C)(C)C(=O)O)c(C(C)C)c1` (racemic) [Cpd 15-2, 2-(2-isopropyl-4-(2-(methoxy(4-(trifluoromethoxy)phenyl)methyl)cyclopropyl)phenoxy)-2-methylpropanoic acid], the “Gal4-hPPARδ(LBD) TOP (% ref)” value at hPPARdelta amounted to 96 % ref. Also, the “Gal4-hPPARγ(LBD) TOP (% ref)” value at hPPARgamma is recorded as 69 % ref. The “Gal4-hPPARα(LBD) TOP (% ref)” value on hPPARalpha was 31 % ref.

Take `COC(c1ccc(C(F)(F)F)cc1C(F)(F)F)C1CC1c1cc(C)c(OC(C)(C)C(=O)O)c(C)c1` (racemic) [Cpd 16-2, 2-(4-(2-((2,4-bis(trifluoromethyl)phenyl)(methoxy)methyl)cyclopropyl)-2,6-dimethylphenoxy)-2-methylpropanoic acid]: the “Gal4-hPPARδ(LBD) TOP (% ref)” value on hPPARdelta is reported as 71 % ref. Also, at hPPARgamma, the “Gal4-hPPARγ(LBD) TOP (% ref)” value is reported as 88 % ref. Besides, at hPPARalpha, the “Gal4-hPPARα(LBD) TOP (% ref)” value was found to be 50 % ref.

One may read the EC50 as the concentration giving half of the maximal effect. Read a high EC50 as weaker potency. Take `COc1cc(OC(F)(F)F)ccc1C(OC)C1CC1c1cc(C)c(OC(C)(C)C(=O)O)c(C)c1` (racemic) [Cpd 17-1, 2-(4-(2-(methoxy(2-methoxy-4-(trifluoromethoxy)phenyl)methyl)cyclopropyl)-2,6-dimethylphenoxy)-2-methylpropanoic acid]: the Emax on hPPARdelta is 86%; on hPPARgamma, 75%; at hPPARalpha, 49%. Moreover, the 50% effective concentration (EC50) at hPPARdelta stood at 6 nM; at hPPARgamma, 12 nM; at hPPARalpha it was 38 nM.

Consider `CCCCCCOc1ccccc1C(OC)C1CC1c1cc(C)c(OC(C)(C)C(=O)O)c(C)c1` (racemic) [Cpd 18-1, 2-(4-(2-((2-(hexyloxy)phenyl)(methoxy)methyl)cyclopropyl)-2,6-dimethylphenoxy)-2-methylpropanoic acid], for which the Emax on hPPARdelta stood at 78%; on hPPARgamma, 84%; on hPPARalpha it was 44%. For the same compound, the figures for the EC50 at hPPARdelta, on hPPARgamma and on hPPARalpha were 157 nM, 26 nM and 59 nM, respectively.

For `COC(c1ccc(OC(F)(F)F)cc1)C1CC1c1ccc(OC(C)(C)C(=O)O)c(Br)c1` (racemic) [Cpd 19-1, 2-(2-bromo-4-(2-(methoxy(4-(trifluoromethoxy)phenyl)methyl)cyclopropyl)phenoxy)-2-methylpropanoic acid], the Emax on hPPARdelta came to 100%; at hPPARgamma, 64%; at hPPARalpha, 53%. Further, the EC50 on hPPARdelta came out at 26 nM; on hPPARgamma it was 97 nM; at hPPARalpha, 157 nM.

As to `COC(c1ccc(OC(F)(F)F)cc1)C1CC1c1cc(F)c(OC(C)(C)C(=O)O)c(F)c1` (racemic) [Cpd 20-1, 2-(2,6-difluoro-4-(2-(methoxy(4-(trifluoromethoxy)phenyl)methyl)cyclopropyl)phenoxy)-2-methylpropanoic acid], the Emax at hPPARdelta came to 84%; on hPPARgamma it was 67%; on hPPARalpha, 50%. The EC50 stood at 87 nM at hPPARdelta, 230 nM at hPPARgamma and 143 nM on hPPARalpha.

In the case of `COC(c1ccc(OC(F)(F)F)cc1)C1CC1c1ccc(OC(C)(C)C(=O)O)c(C2CC2)c1` (racemic) [Cpd 21-1, 2-(2-cyclopropyl-4-(2-(methoxy(4-(trifluoromethoxy)phenyl)methyl)cyclopropyl)phenoxy)-2-methylpropanoic acid], the Emax on hPPARdelta worked out at 88%; at hPPARgamma, 48%; at hPPARalpha, 17%. Moreover, the EC50 came out at 3270 nM on hPPARdelta, 828 nM on hPPARgamma and 3650 nM on hPPARalpha.

Take `COC(c1ccc(SC)cc1)C1CC1c1cc(C)c(OC(C)(C)C(=O)O)c(C)c1` (single isomer, unassigned) [Cpd 3-1, 2-(4-(2-(methoxy(4-(methylthio)phenyl)methyl)cyclopropyl)-2,6-dimethylphenoxy)-2-methylpropanoic acid]: the Emax on hPPARdelta came to 77%; on hPPARgamma, 79%; on hPPARalpha it was 57%. Besides, the EC50 at hPPARdelta was determined as 54 nM; on hPPARgamma, 35 nM; at hPPARalpha, 105 nM.

Regarding `COC(c1ccc(SC)cc1)C1CC1c1cc(C)c(OC(C)(C)C(=O)O)c(C)c1` (single isomer, unassigned) [Cpd 3-2, 2-(4-(2-(methoxy(4-(methylthio)phenyl)methyl)cyclopropyl)-2,6-dimethylphenoxy)-2-methylpropanoic acid], the EC50 at hPPARdelta was found to be 169 nM; on hPPARgamma, 18 nM; on hPPARalpha, 139 nM.

Take `CCCCOC(c1ccc(OC(F)(F)F)cc1)C1CC1c1cc(C)c(OC(C)(C)C(=O)O)c(C)c1` (single isomer, unassigned) [Cpd 5-1, 2-(4-(2-(butyloxy(4-(trifluoromethoxy)phenyl)methyl)cyclopropyl)-2,6-dimethylphenoxy)-2-methylpropanoic acid]: the Emax was found to be 62% on hPPARdelta, 84% at hPPARgamma and 44% at hPPARalpha. The figures for the EC50 at hPPARdelta, on hPPARgamma and on hPPARalpha were 34 nM, 143 nM and 47 nM, respectively.

For the compound `CCCCOC(c1ccc(OC(F)(F)F)cc1)C1CC1c1cc(C)c(OC(C)(C)C(=O)O)c(C)c1` (single isomer, unassigned) [Cpd 5-2, 2-(4-(2-(butyloxy(4-(trifluoromethoxy)phenyl)methyl)cyclopropyl)-2,6-dimethylphenoxy)-2-methylpropanoic acid], the EC50 was 57 nM on hPPARdelta, 21 nM on hPPARgamma and 54 nM on hPPARalpha.

In the case of `Cc1cc(C2CC2C(OCc2ccccc2)c2ccc(OC(F)(F)F)cc2)cc(C)c1OC(C)(C)C(=O)O` (single isomer, unassigned) [Cpd 11-1, 2-(4-(2-(benzyloxy(4-(trifluoromethoxy)phenyl)methyl)cyclopropyl)-2,6-dimethylphenoxy)-2-methylpropanoic acid], the Emax on hPPARdelta is 75%; at hPPARgamma, 86%; at hPPARalpha it was 46%. Also, the concentration giving a half-maximal response (EC50) on hPPARdelta amounted to 79 nM; at hPPARgamma, 116 nM; at hPPARalpha, 21 nM.
